Results reported in patent publication US10004791B2, “Peptide vaccines against PCSK9” (AFFIRIS AG, priority 2014, dated 2018).

Experiments:
human PCSK9 protein = experiment: Protein ELISA: titers of vaccine-induced PCSK9-specific antibodies in plasma of immunized mice; type: in vivo, BALB/c mice; conditions: for titers against huPCSK9 (ODmax/2): mean titer, n=5 BALB/c mice/group, s.c. 4 x 15 μg net peptide coupled to KLH, Alhydrogel, plasma 2 weeks after final injection, titer = serum dilution at 50% ODmax; for capacity to elicit a humoral immune response targeting PCSK9: result in words
Method: (§1) The peptides were conjugated via the heterobifunctional linker GMBS (4-Maleimidobutyric acid N-hydroxysuccinimide ester) to KLH (Keyhole Limpet Hemocyanin).
5 BALB/c mice were subcutaneously immunized. Mice had access to food and water ad libitum and were kept under a 12 h light/dark cycle. The age of mice at the beginning of experiments was 8 to 10 weeks.
(§2) Mice were injected four times in 2 week intervals with 15 μg of net peptide coupled to KLH and adsorbed to Alhydrogel as adjuvant in a volume of 1 ml in total.
(§3) Blood was taken approximately 2 weeks after the final injection.
To determine the immunogenicity of the vaccines, and thus to identify the amount of PCSK9 specific antibodies in the plasma of immunized animals, ELISA immunoassay was performed. The ELISA immunoassay generates a signal which can be easily quantified and represents a quantitative measure of the amount of vaccine induced PCSK9-specific antibodies. Thus the titers as measured by ELISA correlate directly with the amount (μg/ml) of target specific antibodies in the plasma sample of treated animals. All plasma samples were collected two weeks after the final immunization and equality treated. In order to have a direct comparison, the quantitative evaluation by the PCSK9 Protein ELISA immunoassay of the vaccine induced PCSK9-specific antibodies and the comparison to their relative controls (originals sequence and negative control) was performed for all samples simultaneously. For this purpose, ELISA plates were coated with recombinantly expressed human PCSK9 protein. Unspecific binding was blocked by incubation with blocking buffer (1% BSA in PBS). Appropriate serum dilutions (with a starting dilution of 1:100) were added to the wells, serially diluted 1:2 fold (12 dilution steps) and incubated for approximately 1 hour. Bound antibodies were detected by incubation with anti-mouse IgG antibody, ABTS was added as substrate and the OD at 405 nm was measured. As negative control sera from the control group injected with an irrelevant peptide were analyzed. The titers were defined as the dilution of the serum where 50% of the ODmax in the assay is reached.

[1] = Total cholesterol assay in plasma of immunized mice (15 μg net peptide, four injections); type: in vivo, BALB/c mice; conditions: for TC in % (FIG. 2A) / TC in % (FIG. 2B): mean total cholesterol, single AA exchange; for TC in % (FIG. 2A): n=3 mice/group, negative control group (irrelevant peptide) set as 100%; for TC in % (FIG. 2B) / TC in % multiple AA exchanges (FIG. 2C): n=5 mice/group, negative control group set as 100%; for TC in % multiple AA exchanges (FIG. 2C): total cholesterol
Method: as §1
[…] Mice had access to food and water ad libitum and were kept under a 12 h light/dark cycle. The age of mice at the beginning of experiments was 8 to 10 weeks.
as §2, §3
(§4) All plasma samples were collected two weeks after the final immunization and equality treated. Total cholesterol (TC) measurements were performed simultaneously for all samples and side by side compared to their related controls (originals sequence and negative control). The simultaneous quantitative measurement of the plasma TC levels in mg/dL was measured by LabAssay™ Cholesterol Kit (Wako). In details, upon incubation with the chromogen reagent containing cholesterol esterase, the cholesterol esters in the samples were decomposed into free cholesterol and fatty acids. Subsequently the free cholesterol was oxidized by the cholesterol oxidase, leading to the simultaneously release of hydrogen peroxide. The produced hydrogen peroxide let DAOS and 4-Aminoantipyrin oxidize and condensate quantitatively by peroxidase (HRP), which produced blue pigment. Optical density was measured at 600 nm and quantification of the TC was calculated according to a standard curve.

huPCSK9 = experiment: Inhibition of furin cleavage of huPCSK9 by plasma from vaccinated mice (SDS-PAGE / Western blot); type: biochemical, human; conditions: 4 μl mouse plasma, 250 ng biotinylated huPCSK9, 2 U furin overnight RT; FIG. 3; result in words
Method: The furin cleavage reaction was performed with 2 Units Furin (˜110 ng) (New England Biolabs) in PCSK9 buffer containing 100 mM Hepes Buffer pH 7.5, 5% Triton-X and 1 mM CaCl. In details, 4 μl mouse plasma from VARIOTOPE®s vaccinated mice was incubated with 250 ng biotinylated huPCSK9 (BPS Bioscience) in PCSK9 buffer for 1 h at room temperature. Subsequently, 2U Furin (˜110 ng) (New England Biolabs) was added to the reaction solution and incubated over night at RT. The reaction product was analyzed by SDS-PAGE under reducing conditions.

[2] = Reduction of total cholesterol (TC) in treated animals, additional experiments (1 μg net peptide, five injections); type: in vivo, mice; conditions: 5 animals per group, 5 x 1 μg net peptide
Method: as §4
In order to evaluate the ability of selected VARIOTOPE® vaccine candidates to reduce TC and to compare the magnitude of TC reduction in VARIOTOPE® treated animals with the TC reduction in animals treated with a vaccine containing the original sequence, 5 to 10 mice per group were injected five times in 2 week intervals with vaccines containing 1 μg of net peptide. […]

| Substance | titers against huPCSK9 (ODmax/2) (human PCSK9 protein) | also measured |
| --- | --- | --- |
| 22 (PEEDGTRFHRQALK) [compound 22] | 8694 |  |
| 23 (PEEDGTRFHRQASR) [compound 23] | 14722 | TC in % (FIG. 2A) [1]: 70% |
| 7 (PEEDGTRFHRQAAK) [compound 7] | 15676 |  |
| 8 (PEEDGTRFHRQASA) [compound 8] | 23638 |  |
| PEEDGTRFHRQASR [SEQ ID NO: 23] |  | inhibition of furin cleavage of mature PCSK9 (aa153-692) / formation of truncated PCSK9 (aa219-692, ~50 kDa) by induced antibodies (huPCSK9): inhibit the furin cleavage of the mature PCSK9 |
| 34 (PEEDGTRFHPQASK) [compound 34] | 20318 |  |
| 10 (PQEDGTRFHRQASK) [compound 10] | 29228 | inhibition of furin cleavage of mature PCSK9 (aa153-692) / formation of truncated PCSK9 (aa219-692, ~50 kDa) by induced antibodies (huPCSK9): inhibit the formation of truncated furin cleaved PCSK9; TC in % (FIG. 2A) [1]: 78% |
| 4 (PEEDGTRFARQASK) [compound 4] | 21494 |  |
| 32 (PEEDGTRFGRQASK) [compound 32] | 822 |  |
| PEEDGTRFHRQASL [SEQ ID NO: 24] |  | TC values in comparison to the control group (FIG. 4) ([2]; control group set as 100%, result in words): possesses the ability to reduce TC levels compared to the negative control; TC levels compared to the original peptide containing vaccine (FIG. 5) ([2]; original sequence group set to 0%, positive = higher TC): +9% |
| 3 (PAEDGTRFHRQASK) [compound 3] | 2774 |  |
| 29 (PEEDGTRFSRQASK) [compound 29] | 33111 |  |
| PEWDGTRFHRQASK [SEQ ID NO: 26] |  | capacity to elicit a humoral immune response targeting PCSK9 (human PCSK9 protein): do not have the capacity to elicit a humoral immune response targeting PCSK9 |
| PEEDGTRFHRKASK [SEQ ID NO: 18] |  | inhibition of furin cleavage of mature PCSK9 (aa153-692) / formation of truncated PCSK9 (aa219-692, ~50 kDa) by induced antibodies (huPCSK9): inhibit the furin cleavage of the mature PCSK9 |
| 43 (PEEDGSRFHRRASK) [compound 43] | 29435 |  |
| 1 (PEEDGTRFHRQASK) [compound 1] | 12074 | TC in % (FIG. 2A) [1]: 81%; TC in % (FIG. 2B) [1]: 89%; TC in % multiple AA exchanges (FIG. 2C) [1]: 81% |
| 11 (PKEDGTRFHRQASK) [compound 11] | 6610 |  |
| 31 (PEEDGTRFVRQASK) [compound 31] | 11850 |  |
| 39 (PEEDGTRFHRQAST) [compound 39] | 13172 |  |
| 25 (KEEDGTRFHRQASK) [compound 25] | 19315 |  |
| 26 (PEWDGTRFHRQASK) [compound 26] | 840 |  |
| 27 (PEEDKTRFHRQASK) [compound 27] | 7154 |  |
| 35 (PEEDGTRFHSQASK) [compound 35] | 29223 |  |
| 33 (PEEDGTRFMRQASK) [compound 33] | 10651 |  |
| PEEDGTGFHRQASK [SEQ ID NO: 28] |  | capacity to elicit a humoral immune response targeting PCSK9 (human PCSK9 protein): do not have the capacity to elicit a humoral immune response targeting PCSK9 |
| 9 (TEEDGTRFHRQASK) [compound 9] | 23944 |  |
| 36 (PEEDGTRFHRTASK) [compound 36] | 29984 | TC in % (FIG. 2B) [1]: 72% |

| Substance | titers against huPCSK9 (ODmax/2) (human PCSK9 protein) | also measured |
| --- | --- | --- |
| 6 (PEEDGTRFHRAASK) [compound 6] | 22475 |  |
| 13 (PEEDGTRFHQQASK) [compound 13] | 18490 |  |
| 15 (PEEDGTRFHMQASK) [compound 15] | 15556 |  |
| 37 (PEEDGTRFHRQTSK) [compound 37] | 25826 |  |
| 41 (PEEDGSRFHKQASK) [compound 41] | 37296 | TC in % multiple AA exchanges (FIG. 2C) [1]: 66% |
| 45 (PEEDGSRFHRRATK) [compound 45] | 11097 |  |
| 5 (PEEDGTRFHAQASK) [compound 5] | 33442 |  |
| 44 (PEEDGSRFHRQATK) [compound 44] | 20684 | TC in % multiple AA exchanges (FIG. 2C) [1]: 74% |
| 24 (PEEDGTRFHRQASL) [compound 24] | 19471 |  |
| 17 (PEEDGTRFHRRASK) [compound 17] | 28996 | inhibition of furin cleavage of mature PCSK9 (aa153-692) / formation of truncated PCSK9 (aa219-692, ~50 kDa) by induced antibodies (huPCSK9): inhibit the formation of truncated furin cleaved PCSK9; TC in % (FIG. 2A) [1]: 81% |
| 14 (PEEDGTRFHKQASK) [compound 14] | 17795 |  |
| PQEDGTRFHRQASK [SEQ ID NO: 10] |  | inhibition of furin cleavage of mature PCSK9 (aa153-692) / formation of truncated PCSK9 (aa219-692, ~50 kDa) by induced antibodies (huPCSK9): inhibit the furin cleavage of the mature PCSK9 |
| 12 (PEEDGSRFHRQASK) [compound 12] | 12636 |  |
| 19 (PEEDGTRFHRQSSK) [compound 19] | 41310 |  |
| 2 (AEEDGTRFHRQASK) [compound 2] | 36869 |  |
| 42 (PEEDGSRFHMQASK) [compound 42] | 18599 |  |
| 18 (PEEDGTRFHRKASK) [compound 18] | 30537 | inhibition of furin cleavage of mature PCSK9 (aa153-692) / formation of truncated PCSK9 (aa219-692, ~50 kDa) by induced antibodies (huPCSK9): inhibit the formation of truncated furin cleaved PCSK9; TC in % (FIG. 2A) [1]: 81% |
| 30 (PEEDGTRFTRQASK) [compound 30] | 9519 |  |
| PEEDGTRFGRQASK [SEQ ID NO: 32] |  | capacity to elicit a humoral immune response targeting PCSK9 (human PCSK9 protein): do not have the capacity to elicit a humoral immune response targeting PCSK9 |
| 40 (PEEDGTRFHRQASV) [compound 40] | 22678 |  |
| 38 (PEEDGTRFHRQASS) [compound 38] | 31481 |  |
| 28 (PEEDGTGFHRQASK) [compound 28] | 0 |  |
| PEEDGTRFHRRASK [SEQ ID NO: 17] |  | inhibition of furin cleavage of mature PCSK9 (aa153-692) / formation of truncated PCSK9 (aa219-692, ~50 kDa) by induced antibodies (huPCSK9): inhibit the furin cleavage of the mature PCSK9 |
| 21 (PEEDGTRFHRQANK) [compound 21] | 15303 |  |
| 20 (PEEDGTRFHRQATK) [compound 20] | 10813 |  |
| 16 (PEEDGTRFHREASK) [compound 16] | 18670 |  |
